Columns and labels:
Format in all cases: cell-based
PaGTR3 = molecular target: T1, PaGTR3 (Phyllotreta armoraciae, UniProt A0A858Z6Y2); assay: uptake into transfected High Five insect cells, LC-MS/MS; conditions: equimolar mixture of seven glucosinolates, 200 µM, PBS pH 5.5, 1 h, 27 °C
T1 construct: gene GTR3; full-length ORF in pIEx-4, C-terminal 6xHis tag, expressed in High Five insect cells
T1 sequence (A0A858Z6Y2 1-478): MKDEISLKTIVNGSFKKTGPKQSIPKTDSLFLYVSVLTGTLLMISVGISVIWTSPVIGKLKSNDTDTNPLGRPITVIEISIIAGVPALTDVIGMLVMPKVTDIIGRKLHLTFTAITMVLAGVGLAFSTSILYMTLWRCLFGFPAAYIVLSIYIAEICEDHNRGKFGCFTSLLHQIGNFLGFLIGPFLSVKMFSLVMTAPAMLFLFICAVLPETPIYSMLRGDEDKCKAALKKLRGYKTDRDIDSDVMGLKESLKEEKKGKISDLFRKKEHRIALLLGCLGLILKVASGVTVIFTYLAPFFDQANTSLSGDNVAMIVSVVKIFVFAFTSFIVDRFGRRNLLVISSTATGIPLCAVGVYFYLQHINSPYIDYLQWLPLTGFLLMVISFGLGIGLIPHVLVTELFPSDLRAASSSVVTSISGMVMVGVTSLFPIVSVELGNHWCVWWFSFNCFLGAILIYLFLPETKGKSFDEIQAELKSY

PaGTR2 = molecular target: T2, PaGTR2 (Phyllotreta armoraciae, UniProt A0A858Z6M7); assay: as above; conditions: equimolar mixture of seven glucosinolates, 200 µM, PBS pH 5.5, 1 h, 27 °C
T2 construct: gene GTR2; full-length ORF in pIEx-4, C-terminal 6xHis tag, expressed in High Five insect cells
T2 sequence (A0A858Z6M7 1-504): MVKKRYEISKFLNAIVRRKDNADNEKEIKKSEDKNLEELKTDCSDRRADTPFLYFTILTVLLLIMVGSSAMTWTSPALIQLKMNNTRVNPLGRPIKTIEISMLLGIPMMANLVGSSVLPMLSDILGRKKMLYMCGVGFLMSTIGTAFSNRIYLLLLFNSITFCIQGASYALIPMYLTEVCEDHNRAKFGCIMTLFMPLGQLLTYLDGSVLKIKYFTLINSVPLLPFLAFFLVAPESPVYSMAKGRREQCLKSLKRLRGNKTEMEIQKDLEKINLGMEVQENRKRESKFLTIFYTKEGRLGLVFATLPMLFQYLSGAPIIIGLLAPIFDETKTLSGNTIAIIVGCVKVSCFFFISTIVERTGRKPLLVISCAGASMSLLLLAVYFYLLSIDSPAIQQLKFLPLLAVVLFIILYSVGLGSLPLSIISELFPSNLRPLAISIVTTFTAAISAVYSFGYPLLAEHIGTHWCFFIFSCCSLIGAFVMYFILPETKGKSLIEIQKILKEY

PaGTR1 = molecular target: T3, PaGTR1 (Phyllotreta armoraciae, UniProt A0A858Z6R5); assay: uptake into PaGTR1-expressing Xenopus oocytes, LC-MS/MS; conditions: Kulori buffer with MES pH 6.0, 10 min, room temperature; proton-dependent import; read-out: apparent Km
T3 construct: gene GTR1; full-length ORF without stop codon in pNB1u, C-terminal HA tag, cRNA expressed in Xenopus laevis oocytes
T3 sequence (A0A858Z6R5 entry or part of it): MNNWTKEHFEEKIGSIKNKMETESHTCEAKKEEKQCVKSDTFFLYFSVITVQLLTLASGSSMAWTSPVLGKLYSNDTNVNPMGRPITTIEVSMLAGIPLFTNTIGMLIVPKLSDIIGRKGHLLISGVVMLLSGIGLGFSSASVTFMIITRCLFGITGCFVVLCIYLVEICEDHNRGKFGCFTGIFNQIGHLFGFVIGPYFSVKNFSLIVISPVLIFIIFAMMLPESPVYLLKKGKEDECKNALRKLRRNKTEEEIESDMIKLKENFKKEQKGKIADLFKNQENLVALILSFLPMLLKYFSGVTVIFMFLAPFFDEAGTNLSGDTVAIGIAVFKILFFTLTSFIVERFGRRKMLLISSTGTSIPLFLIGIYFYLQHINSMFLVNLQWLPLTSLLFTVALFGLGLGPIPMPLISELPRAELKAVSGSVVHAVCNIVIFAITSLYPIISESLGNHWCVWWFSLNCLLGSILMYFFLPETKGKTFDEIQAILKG

O=S(=O)(O)O/N=C(/Cc1c[nH]c2ccccc12)S[C@@H]1O[C@H](CO)[C@@H](O)[C@H](O)[C@H]1O [I3M glucosinolate]
uptake into transfected High Five insect cells, LC-MS/MS (PaGTR3): PaGTR2 and PaGTR3 expression was analyzed because the recombinant transporters also used I3M glucosinolate
uptake into transfected High Five insect cells, LC-MS/MS (PaGTR2): PaGTR2 and PaGTR3 expression was analyzed because the recombinant transporters also used I3M glucosinolate
Km (PaGTR1): 50.6 ± 4.1 µM

Source: paper PMC8113468, “Sugar transporters enable a leaf beetle to accumulate plant defense compounds” (Nature Communications, 2021)
